Measurements taken from patent publication US20080096894A1, “Anti-Bacterial Compounds” (ASTON UNIVERSITY, priority 2005, published 2008).
Values after ≈ are worked out from the molar mass of the structure shown. Read-outs that look alike come from different tables or passages of the source. One block for each molecule: values may come before it.

Assays:
[1] = test system: human mononuclear leucocytes (MNL, white blood cells); assay: direct leucocyte toxicity, tryptan blue exclusion, 18 hours; assay type: cell-based
Method: The in vitro assay used human mononuclear leucocytes (MNL, white blood cells) which were incubated with the test compound for 18 hours and cell death determined by tryptan blue exclusion (tryptan blue is a dye, which stains dead cells, whilst living cells extrude it).
The toxicity of 4PYcq and the aldehyde cq and pyridine-4-carboxamidrazone precursors were assessed using the same in vitro assay with human mononuclear leucocytes as that described above. The toxicity of related compounds, 2-hydroxybenzylidene-pyridine-2-carboxamidrazone 4PYbw and benzylidenepyridine-2-carboxamidrazone 4PYaa were also examined.

S. aureus = assay: MIC, agar dilution, multipoint inoculator; assay type: cell-based, Staphylococcus aureus; conditions: upper value of MIC reading
Method: (§1) This activity was measured using a multipoint inoculator method as follows. The MIC for each compound was measured using an agar dilution method (Onda, H., et al., Int. J. Antimicrob. Agents. 18, 263 (2001)) (Mueller Hinton agar) by means of a multipoint inoculator delivering 10^4 colony forming units per spot.

MRSA = assay: MIC, agar dilution, multipoint inoculator; assay type: cell-based, methicillin-resistant Staphylococcus aureus
Method: as §1
‘Staph’ refers to the reference strain of S. aureus (NCTC 6571). A tick in the MRSA column refers to a positive zone against MRSA strain 96-7474, and the MIC range (in μg/ml) which follows is that found against a panel of ten MRSA strains. Where MIC values are given for MRSA, these are stated as a range of values, as testing was carried out on a panel of clinical isolates.

E. faecium = assay: MIC, agar dilution, multipoint inoculator; assay type: cell-based, Enterococcus faecium; conditions: upper value of MIC reading
Method: as §1

S. epidemisis = assay: MIC, agar dilution, multipoint inoculator; assay type: cell-based, Staphylococcus epidermidis; conditions: upper value of MIC reading
Method: as §1

E. faecalis = assay: MIC, agar dilution, multipoint inoculator; assay type: cell-based; conditions: upper value of MIC reading
Method: as §1

S. aboni = assay: MIC, agar dilution, multipoint inoculator; assay type: cell-based; conditions: S. aboni NCTC 6017; upper value of MIC reading
Method: as §1

S. haemolyticus = assay: MIC, agar dilution, multipoint inoculator; assay type: cell-based; conditions: S. haemolyticus Isolate 1, upper value of MIC reading
Method: as §1

S. maltophilia = assay: MIC, agar dilution, multipoint inoculator; assay type: cell-based; conditions: S. maltophilia NCTC 10257; upper value of MIC reading
Method: as §1

B. bronchiseptica = assay: MIC, agar dilution, multipoint inoculator; assay type: cell-based; conditions: B. bronchiseptica NCTC 8344; upper value of MIC reading
Method: as §1

[2] = MRSA Isolate 1, upper value of MIC reading, in µg/mL
[3] = MRSA Isolate 3, upper value of MIC reading, in µg/mL
[4] = MRSA Isolate 4, upper value of MIC reading, in µg/mL

Structure (SMILES): N=C(NN=Cc1ccccc1)c1ccccn1 [Compound 4PYaa, benzylidenepyridine-2-carboxamidrazone]
direct MNL toxicity (in words) [1]: only mildly toxic in comparison

MIC (S. aureus; Staphylococcus aureus, 18 h, S. aureus Cowan 1, read-out: MIC): 32 µg/mL (≈ 98.6 µM)
MIC (S. aureus; Staphylococcus aureus, NCTC6571, 18 h, S. aureus NCTC 6571, read-out: MIC): 32 µg/mL (≈ 98.6 µM)
MIC (S. aureus; Staphylococcus aureus, NCTC10788, 18 h, S. aureus NCTC 10788, read-out: MIC): 64 µg/mL (≈ 197 µM)
MIC (MRSA; Staphylococcus aureus, 18 h, MRSA Isolate 1, upper value of MIC reading, read-out: MIC): 32 µg/mL (≈ 98.6 µM)
MIC (MRSA; Staphylococcus aureus, 18 h, MRSA Isolate 2, upper value of MIC reading, read-out: MIC): 64 µg/mL (≈ 197 µM)
MIC (MRSA; Staphylococcus aureus, 18 h, MRSA Isolate 3, upper value of MIC reading, read-out: MIC): 64 µg/mL (≈ 197 µM)
MIC (MRSA; Staphylococcus aureus, 18 h, MRSA Isolate 4, upper value of MIC reading, read-out: MIC): 32 µg/mL (≈ 98.6 µM)
MIC (MRSA; Staphylococcus aureus, 18 h, MRSA Isolate 5, upper value of MIC reading, read-out: MIC): 32 µg/mL (≈ 98.6 µM)
MIC (MRSA; Staphylococcus aureus, 18 h, MRSA Isolate 6, upper value of MIC reading, read-out: MIC): 32 µg/mL (≈ 98.6 µM)
MIC (MRSA; Staphylococcus aureus, 18 h, MRSA Isolate 7, upper value of MIC reading, read-out: MIC): 64 µg/mL (≈ 197 µM)
MIC (MRSA; Staphylococcus aureus, 18 h, MRSA Isolate 8, upper value of MIC reading, read-out: MIC): 64 µg/mL (≈ 197 µM)
MIC (MRSA; Staphylococcus aureus, 18 h, MRSA Isolate 9, upper value of MIC reading, read-out: MIC): 32 µg/mL (≈ 98.6 µM)
MIC (MRSA; Staphylococcus aureus, 18 h, MRSA Isolate 10, upper value of MIC reading, read-out: MIC): 32 µg/mL (≈ 98.6 µM)
MIC (MRSA; Staphylococcus aureus, MRSA, 18 h, panel of ten MRSA strains (clinical isolates), read-out: MRSA MIC range): 16 to 64 µg/mL (≈ 49.3 to 197 µM)
MIC (E. faecium; Enterococcus faecium, NCTC7171, 18 h, E. faecium NCTC 7171, read-out: MIC): 256 µg/mL (≈ 789 µM)
MIC (S. epidemisis; Staphylococcus epidermidis, 18 h, S. epidemisis Isolate 1, read-out: MIC): 128 µg/mL (≈ 395 µM)
MIC (S. epidemisis; Staphylococcus epidermidis, NCTC11047, 18 h, S. epidemisis NCTC 11047, read-out: MIC): 256 µg/mL (≈ 789 µM)
MIC (E. faecalis; Enterococcus faecalis, 18 h, E. faecalis Isolate 1, read-out: MIC): 256 µg/mL (≈ 789 µM)
MIC (E. faecalis; Enterococcus faecalis, 18 h, E. faecalis Isolate 2, read-out: MIC): 256 µg/mL (≈ 789 µM)
MIC (E. faecalis; Enterococcus faecalis, 18 h, E. faecalis Isolate 4, read-out: MIC): 256 µg/mL (≈ 789 µM)
MIC (E. faecalis; Enterococcus faecalis, 18 h, E. faecalis Isolate 5, read-out: MIC): 256 µg/mL (≈ 789 µM)
MIC (S. aboni): 32 µg/mL (≈ 98.6 µM)
Structure (SMILES): N/C(=N\N=C\c1c2ccccc2cc2ccccc12)c1ccncc1 [Compound 4PYam]
MIC (S. haemolyticus; Staphylococcus haemolyticus, 18 h, read-out: MIC): 256 µg/mL (≈ 789 µM)

Structure (SMILES): N=C(NN=Cc1ccccc1O)c1ccccn1 [Compound 4PYbw, 2-hydroxybenzylidene-pyridine-2-carboxamidrazone]
direct MNL toxicity (in words) [1]: only mildly toxic in comparison

Structure (SMILES): NC(=NN=Cc1c(O)ccc2ccccc12)c1ccncc1 [Compound 4PYdb]
MIC (S. aureus; S. aureus Cowan 1): 128 µg/mL (≈ 441 µM)
MIC (S. aureus; S. aureus NCTC 6571): > 256 µg/mL
MIC (MRSA; [2]): 128
MIC (MRSA; [3]): 256
MIC (MRSA; [4]): 256
MIC (S. epidemisis; S. epidemisis Isolate 1): 128 µg/mL (≈ 441 µM)
MIC (S. epidemisis; S. epidemisis NCTC 11047): 128 µg/mL (≈ 441 µM)
MIC (E. faecalis; E. faecalis Isolate 2): 256 µg/mL (≈ 882 µM)
MIC (E. faecalis; E. faecalis Isolate 3): 256 µg/mL (≈ 882 µM)
MIC (S. haemolyticus): 128 µg/mL (≈ 441 µM)
MIC (S. maltophilia): 128 µg/mL (≈ 441 µM)

Structure (SMILES): NC(=NN=Cc1cc(O)c(O)cc1O)c1ccc2ccccc2n1 [QNcc]
MIC (S. aureus; S. aureus Cowan 1): 256 µg/mL (≈ 794 µM)
MIC (S. aureus; S. aureus NCTC 6571): 256 µg/mL (≈ 794 µM)
MIC (S. aureus; S. aureus NCTC 10788): 256 µg/mL (≈ 794 µM)
MIC (MRSA; [2]): 256
MIC (B. bronchiseptica): 256 µg/mL (≈ 794 µM)
MIC (E. faecalis; E. faecalis Isolate 2): 256 µg/mL (≈ 794 µM)
MIC (E. faecalis; E. faecalis Isolate 3): 256 µg/mL (≈ 794 µM)

Structure (SMILES): CN(C)CCCOc1ccc(C=NN=C(N)c2ccc3ccccc3n2)cc1 [QNds]
MIC (S. aureus; S. aureus Cowan 1): 128 µg/mL (≈ 341 µM)
MIC (S. aureus; S. aureus NCTC 6571): 128 µg/mL (≈ 341 µM)
MIC (S. aureus; S. aureus NCTC 10788): 128 µg/mL (≈ 341 µM)
MIC (MRSA; [2]): 64
MIC (MRSA; MRSA Isolate 2, upper value of MIC reading, in µg/mL): 64
MIC (MRSA; [3]): 64
MIC (MRSA; [4]): 64
MIC (MRSA; MRSA Isolate 5, upper value of MIC reading, in µg/mL): 64
MIC (MRSA; MRSA Isolate 6, upper value of MIC reading, in µg/mL): 64
MIC (MRSA; MRSA Isolate 7, upper value of MIC reading, in µg/mL): 64
MIC (MRSA; MRSA Isolate 8, upper value of MIC reading, in µg/mL): 64
MIC (MRSA; MRSA Isolate 9, upper value of MIC reading, in µg/mL): 64
MIC (MRSA; MRSA Isolate 10, upper value of MIC reading, in µg/mL): 64
MRSA MIC range (MRSA; panel of ten MRSA strains (clinical isolates)): 32 to 128 µg/mL
MIC (E. faecium; E. faecium ACTCC 10541): 128 µg/mL (≈ 341 µM)
MIC (E. faecium; E. faecium NCTC 7171): 64 µg/mL (≈ 170 µM)
MIC (S. epidemisis; S. epidemisis Isolate 1): 256 µg/mL (≈ 682 µM)
MIC (S. epidemisis; S. epidemisis NCTC 11047): 256 µg/mL (≈ 682 µM)
MIC (E. faecalis; E. faecalis EBH1): 128 µg/mL (≈ 341 µM)
MIC (E. faecalis; E. faecalis Isolate 1): 128 µg/mL (≈ 341 µM)
MIC (E. faecalis; E. faecalis Isolate 2): 128 µg/mL (≈ 341 µM)
MIC (E. faecalis; E. faecalis Isolate 3): 128 µg/mL (≈ 341 µM)
MIC (E. faecalis; E. faecalis Isolate 4): 128 µg/mL (≈ 341 µM)
MIC (E. faecalis; E. faecalis Isolate 5): 64 µg/mL (≈ 170 µM)
MIC (E. faecalis; E. faecalis NCTC 5957): 64 µg/mL (≈ 170 µM)
MIC (S. haemolyticus): 256 µg/mL (≈ 682 µM)
MIC (S. maltophilia): 256 µg/mL (≈ 682 µM)

Structure (SMILES): CC(C)(C)c1ccc(C=O)cc1 [ae]
direct MNL toxicity (in words) [1]: most toxic
% Leucocyte Death ([1]; human, 18 h, 1 mM): 24.1 ± 9.6%

Structure (SMILES): CCC(C)(C)c1ccc(C=O)cc1 [af]
% Leucocyte Death ([1]; human, 18 h, 1 mM): 5.5 ± 3.0%

Structure (SMILES): O=Cc1cccc2ccccc12 [al]
% Leucocyte Death ([1]; 1.0 mM, 18 hours): 9.2 ± 4.7%
